Test results taken from patent publication EP0324390A2, “Nigericin derivatives, method for their preparation, compositions containing them and use of these compositions” (priority 1988, dated 1989).

Experiments:
Assay in all cases: Agar dilution test according to Lorian (antibacterial activity)
Assay type in all cases: cell-based
Conditions in all cases: Müller Hinton Agar, 16 to 18 h at 37 C; lowest concentration fully preventing growth
[1] = system: Strept. faecium (D)
Method: (§1) Die antibakterielle Wirksamkeit der erfindungsgemäßen Verbindungen wurde im Agar-Verdünnungstest nach Lorian (Antibiotics in Laboratory Medicine, Williams & Wilkins, Baltimore/London, 1980) bestimmt. Dabei wurden die Präparate in einer geometrischen Verdünnungsreihe mit dem Faktor 2 in Müller Hinton Agar verdünnt. Eine Petrischale enthielt nur Müller Hinton Agar und diente zur Kontrolle des Bakterienwachstums. Die Petrischalen wurden dann mit einem Denley-Multipoint-Inokulator, welcher 0,6 ul einer 1 : 100 verdünnten 18-Stunden-Kultur der Testbakterien übertrug, mit den entsprechenden Testbakterien beimpft. Nach 16 bis 18 Stunden Inkubation bei 37^. C wurden die Petrischalen makroskopisch auf Bakterienwachstum untersucht.
(§2) Die niedrigste Konzentration der erfindungsgemäßen Verbindungen, welche das Bakterienwachstum noch vollständig verhinderte, wurde als MIC (Minimum Inhibitory Concentration) angenommen.
(§3) In Tabelle 4 ist die Wirkung (Angabe des MIC in µg/ml) von verschiedenen erfindungsgemäßen Verbindungen gegen folgende Bakterien aufgeführt: • Staph. aureus (SG 511), Staph. aureus (285), Staph. aureus (503), Strept. pyogenes (308 A), Strept pyogenes (77 A), Strept. faecium (D).

[2] = system: Staph. aureus (503)
Method: as §1, §2, §3

[3] = system: Staph. aureus (285)
Method: as §1, §2, §3

[4] = system: Staph. aureus (SG 511)
Method: as §1, §2, §3

[5] = system: Strept. pyogenes (77 A)
Method: as §1, §2, §3

[6] = system: Strept. pyogenes (308 A)
Method: as §1, §2, §3

Question: For `COC1CC(CC2CCC(C)C(C(C)C(=O)O)O2)OC2(OC(C)(C3CCC(C)(C4OC(C5OC(O)(COS(C)(=O)=O)C(C)CC5C)CC4C)O3)CC2C)C1C` (stereo not drawn) [Beispiel 2], which MIC [1] is on record?
Answer: 0,195 µg/ml

Question: And the MIC [2]?
Answer: 0,049 µg/ml

Question: What about the MIC [3] of the same molecule?
Answer: 0,049 µg/ml

Question: And the MIC [4]?
Answer: 0,098 µg/ml

Question: What about the MIC [5] of the same molecule?
Answer: 0,013 µg/ml

Question: And the MIC [6]?
Answer: 0,004 µg/ml

Question: Which MIC [1] does the source give for `COC1CC(CC2CCC(C)C(C(C)C(=O)O)O2)OC2(OC(C)(C3CCC(C)(C4OC(C5OC(O)(COC(=O)COc6ccccc6)C(C)CC5C)CC4C)O3)CC2C)C1C` (stereo not drawn) [Beispiel 3] here?
Answer: 0,781 µg/ml

Question: What about the MIC [2] of the same molecule?
Answer: 0,391 µg/ml

Question: And the MIC [3]?
Answer: 0,391 µg/ml

Question: What about the MIC [4] of the same molecule?
Answer: 0,391 µg/ml

Question: What about the MIC [5] of the same molecule?
Answer: 0,049 µg/ml

Question: And the MIC [6]?
Answer: 0,049 µg/ml

Question: What does the source list for `COC1CC(CC2CCC(C)C(C(C)C(=O)O)O2)OC2(OC(C)(C3CCC(C)(C4OC(C5OC(O)(COC(=O)CCOc6ccccc6)C(C)CC5C)CC4C)O3)CC2C)C1C` (stereo not drawn) [Beispiel 4]?
Answer: MIC [1]: 1,56 µg/ml; MIC [2]: 0,78 µg/ml; MIC [3]: 1,56 µg/ml; MIC [4]: 0,78 µg/ml; MIC [5]: 0,098 µg/ml; MIC [6]: 0,098 µg/ml

Question: Which MIC [1] does the source give for `COC1CC(CC2CCC(C)C(C(C)C(=O)O)O2)OC2(OC(C)(C3CCC(C)(C4OC(C5OC(O)(COC(C)=O)C(C)CC5C)CC4C)O3)CC2C)C1C` (stereo not drawn) [Beispiel 5] here?
Answer: 0,781 µg/ml

Question: And the MIC [2]?
Answer: 0,391 µg/ml

Question: And the MIC [3]?
Answer: 0,391 µg/ml

Question: And the MIC [4]?
Answer: 0,391 µg/ml

Question: What about the MIC [5] of the same molecule?
Answer: 0,098 µg/ml

Question: And the MIC [6]?
Answer: 0,098 µg/ml

Question: For `COC1CC(CC2CCC(C)C(C(C)C(=O)O)O2)OC2(OC(C)(C3CCC(C)(C4OC(C5OC(O)(COC(=O)c6ccccc6)C(C)CC5C)CC4C)O3)CC2C)C1C` (stereo not drawn) [Beispiel 6], which MIC [1] is on record?
Answer: 0,391 µg/ml

Question: What about the MIC [2] of the same molecule?
Answer: 0,098 µg/ml

Question: And the MIC [3]?
Answer: 0,391 µg/ml

Question: And the MIC [4]?
Answer: 0,098 µg/ml

Question: What about the MIC [5] of the same molecule?
Answer: 0,013 µg/ml

Question: And the MIC [6]?
Answer: 0,013 µg/ml

Question: Which MIC [1] does the source give for `COC1CC(CC2CCC(C)C(C(C)C(=O)O)O2)OC2(OC(C)(C3CCC(C)(C4OC(C5OC(O)(COC(=O)Cc6ccccc6)C(C)CC5C)CC4C)O3)CC2C)C1C` (stereo not drawn) [Beispiel 7] here?
Answer: 0,391 µg/ml

Question: And the MIC [2]?
Answer: 0,195 µg/ml

Question: And the MIC [3]?
Answer: 0,391 µg/ml

Question: And the MIC [4]?
Answer: 0,195 µg/ml

Question: And the MIC [5]?
Answer: 0,004 µg/ml

Question: What about the MIC [6] of the same molecule?
Answer: 0,004 µg/ml

Question: What does the source list for `COC1CC(CC2CCC(C)C(C(C)C(=O)O)O2)OC2(OC(C)(C3CCC(C)(C4OC(C5OC(O)(COC(=O)c6ccco6)C(C)CC5C)CC4C)O3)CC2C)C1C` (stereo not drawn) [Beispiel 8]?
Answer: MIC [1]: 0,391 µg/ml; MIC [2]: 0,195 µg/ml; MIC [3]: 0,391 µg/ml; MIC [4]: 0,195 µg/ml; MIC [5]: 0,013 µg/ml; MIC [6]: 0,013 µg/ml

Question: `COC1CC(CC2CCC(C)C(C(C)C(=O)O)O2)OC2(OC(C)(C3CCC(C)(C4OC(C5OC(O)(COC(=O)c6cccs6)C(C)CC5C)CC4C)O3)CC2C)C1C` (stereo not drawn) [Beispiel 9] was tested. Which MIC [1] did it give?
Answer: 0,195 µg/ml

Question: What about the MIC [2] of the same molecule?
Answer: 0,049 µg/ml

Question: And the MIC [3]?
Answer: 0,195 µg/ml

Question: What about the MIC [4] of the same molecule?
Answer: 0,049 µg/ml

Question: And the MIC [5]?
Answer: 0,007 µg/ml

Question: And the MIC [6]?
Answer: 0,007 µg/ml

Question: For `CCCCCCCCCCCC(=O)OCC1(O)OC(C2CC(C)C(C3(C)CCC(C4(C)CC(C)C5(OC(CC6CCC(C)C(C(C)C(=O)O)O6)CC(OC)C5C)O4)O3)O2)C(C)CC1C` (stereo not drawn) [Beispiel 10], which MIC [1] is on record?
Answer: 6,25 µg/ml

Question: And the MIC [2]?
Answer: 3,13 µg/ml

Question: And the MIC [3]?
Answer: 6,25 µg/ml

Question: And the MIC [4]?
Answer: 6,25 µg/ml

Question: What about the MIC [5] of the same molecule?
Answer: 0,781 µg/ml

Question: What about the MIC [6] of the same molecule?
Answer: 0,781 µg/ml

Question: What does the source list for `COC1CC(CC2CCC(C)C(C(C)C(=O)O)O2)OC2(OC(C)(C3CCC(C)(C4OC(C5OC(O)(COC(=O)CCC(=O)O)C(C)CC5C)CC4C)O3)CC2C)C1C` (stereo not drawn) [Beispiel 11]?
Answer: MIC [1]: 0,391 µg/ml; MIC [2]: 0,098 µg/ml; MIC [3]: 0,195 µg/ml; MIC [4]: 0,391 µg/ml; MIC [5]: 0,025 µg/ml; MIC [6]: 0,025 µg/ml

Question: Which MIC [1] does the source give for `COC1CC(CC2CCC(C)C(C(C)C(=O)O)O2)OC2(OC(C)(C3CCC(C)(C4OC(C5OC(O)(COC(=O)Nc6ccccc6)C(C)CC5C)CC4C)O3)CC2C)C1C` (stereo not drawn) [Beispiel 12] here?
Answer: 1,56 µg/ml

Question: And the MIC [2]?
Answer: 0,78 µg/ml

Question: What about the MIC [3] of the same molecule?
Answer: 3,13 µg/ml

Question: What about the MIC [4] of the same molecule?
Answer: 0,781 µg/ml

Question: And the MIC [5]?
Answer: 0,098 µg/ml

Question: And the MIC [6]?
Answer: 0,098 µg/ml

Question: Which results are given for `COC1CC(CC2CCC(C)C(C(C)C(=O)O)O2)OC2(OC(C)(C3CCC(C)(C4OC(C5OC(O)(COC(=O)NCc6ccccc6)C(C)CC5C)CC4C)O3)CC2C)C1C` (stereo not drawn) [Beispiel 13]?
Answer: MIC [1]: 12,5 µg/ml; MIC [2]: 3,13 µg/ml; MIC [3]: 6,25 µg/ml; MIC [4]: 3,13 µg/ml; MIC [5]: 0,39 µg/ml; MIC [6]: 0,78 µg/ml
